Legend:
[1] = system: MCF-7 cells transfected with BAX/BAK interfering plasmid; experiment: Cytotoxicity by MTT, cells transfected with BAX/BAK interfering plasmid; assay type: cell-based; settings: Homo sapiens, MCF7; MCF-7 with BAX/BAK interfering plasmid, MTT, 48 hours
Procedure: (§1) 3 μg of BAX/BAK interfering plasmid was transfected into MCF-7 cells by using calcium phosphate coprecipitation method, 24 hours later, the cells were collected. The expressions after the BAX and BAK proteins interfered with RNA was detected by Western, and the cell groups without plasmid transfection were treated similarly and were set as the control group. The transfected cells were inoculated in a 96-well plate (1×10^5 cells/well), the control experiment of the cell group without plasmid transfection was carried out in parallel. The compound 1 to be detected was added thereinto according to the concentration gradient designed before the experiment. 48 hours later, the cellular vitality was detected by MTT. The experimental results were shown in FIG. 9, Gossypol as nonspecific BH3 analogue was treated in parallel.
(§2) Other 24 compounds were also detected by the same experimental method as described above, the differences of IC50 values between the transfected cells and the without plasmid transfection cells were compared.

[2] = molecular target: Mcl-1 protein (Homo sapiens, UniProt Q07820); experiment: Fluorescence polarization assay, competition with FAM-Bid peptide for Mcl-1; settings: FAM-Bid 5 nM, 4 hours of incubation, read-out: Mcl-1 binding constants
Procedure: (§3) A Bid BH3 peptide (amino acids: 79-99: […]) having 21 amino acids was synthesized and marked with 6-carboxyfluorescein N-succinimidyl ester (FAM) as fluorescent tag (FAM-Bid) at the N-terminal. The reaction system used in the competitive binding experiment was GST-Bcl-2 protein (40 nM) or Mcl-1 protein, which was dissolved in the reaction buffer (100 mM K3PO4, pH 7.5; 100 μg/ml bovine γ albumin; 0.02% sodium azide) together with FAM-Bid polypeptide (5 nM). In a 96-well plate, 100 µL of the reaction system was added into each well. Then 1 μL different concentration of compound 13 mother solution to be detected dissolved in DMSO was added there into until the final concentration met the experimental design requirements. Meanwhile, two control groups were established, one with the reaction system only containing Bcl-2 or Mcl-1 and FAM-Bid (equivalent to 0% inhibition rate), the other with the reaction system only containing FAM-Bid peptide. After 4 hours of incubation, the 96-well plate was detected by enzyme-labelled meter. The fluorescent polarization value (mP) was tested at […]. Ki value was deduced according to calculation formula.
(§4) The BH3 analogous degrees of other 12 compounds were detected by using the experimental method as described above.

[3] = system: MCF-7 cells; experiment: Cytotoxicity by MTT, cells without plasmid transfection; assay type: cell-based; settings: Homo sapiens, MCF7; MCF-7, MTT, 48 hours; read-out: IC50 value in untransfected cells
Procedure: as §1, §2

[4] = molecular target: GST-Bcl-2 protein (Homo sapiens, UniProt P10415); experiment: Fluorescence polarization assay, competition with FAM-Bid peptide for Bcl-2; settings: GST-Bcl-2 40 nM, FAM-Bid 5 nM, 4 hours of incubation, read-out: Bcl-2 binding constants
Procedure: as §3, §4

[5] = molecular target: T1, interaction between Bcl-2 and Bax (Homo sapiens, UniProt P10415); experiment: Intracellular FRET, Bcl-2-CFP/Bax-YFP in Hela cells; assay type: cell-based; settings: for Time (time period after which the interaction between Bcl-2 and Bax was interfered): at the concentration given
T1 construct: expressed in transfected cells; host or cells: Hela cells
Procedure: 2 μg of Bcl-2-CFP and Bax-YFP plasmids were transfected separately or simultaneously into Hela cells by using calcium phosphate coprecipitation method, 24 hours later, the cells were inoculated in a 6-well plate (2×10^5 cells/well), and the compound 1 to be detected dissolved in DMSO was added there into until the final concentration (2, 5, 10 and 15 μM) was achieved. 24 hours later (please refer to FIG. 5); the cells were washed with PBS for three times. The fluorescence value was detected by GENIOS fluorescence enzyme-labelled meter (TECAN, Swiss). In time-dependent experiment, the transfected cells were inoculated in a 6-well plate, after that, 40 μM of the compound was added thereinto. 3, 6 and 24 hours later (FIG. 6), the fluorescence intensities were detected by plate reader. As for the cell group in which only Bcl-2-CFP plasmid was transfected, the values at 475 nm emission wave length and 433 nm excitation wave length were recorded. As for the cell group in which only Bax-YFP plasmid was transfected, the values at 527 nm emission wave length and 505 nm excitation wave length were recorded. As for the cell group in which Bcl-2-CFP and Bax-YFP plasmids were co-transfected, the values at 527 nm and 475 emission wave lengths and 433 nm excitation wave length were recorded. The ratio of fluorescence intensity at 527 nm and 475 nm emission wave lengths was FRET. The FRET for the control group in which the plasmid was solely transfected was set as 1.0. […] In the cotransfected cells, the FRET increased up to 2.0 due to the interaction of Bcl-2 protein and Bax protein, and that the interference to the interaction between the two proteins increased and FRET decreased with the increase of the drug concentration and time. The cellular vitality was detected by MTT method. When the concentration of the compound reached 1 μM, the interaction between Bcl-2 and Bax can be interfered after 2 hours, and the results appeared concentration-time dependent trend.
Wherein the concentration and time meant that the detected compound interfered with the interaction between Bcl-2 and Bax at the concentration for the time period.

[6] = system: BAX shift towards the chondriosome; experiment: Co-localization between Bax protein and chondriosome, Bax-YFP in MCF-7 cells; assay type: cell-based; settings: for Doses (concentration at which the compound drove the BAX to shift towards the chondriosome): Bax-YFP/Mito Tracker Red; for Time (time period after which BAX shifted towards the chondriosome): at the concentration given
Procedure: 5 μg of Bax-YFP plasmid was transfected into MCF-7 cells by using calcium phosphate coprecipitation method, 24 hours later, the cells were inoculated in a 6-well plate (0.2×10^6 cells/well), and 10 μM of the compound 1 to be detected was added thereinto. 6 hours later, the cells were washed with PBS and hatched away from light with 50 nM Mito Tracker Red CMXRos (chondriosome specific probes; red) for 10 minutes. Then the cells were washed with PBS for three times, and the fluorescent image was scanned with Radiance2000 laser confocal microscopy (Bio-Rad, USA). Meanwhile, dual channel scanning was carried out, one channel was used to scan the green fluorescence of Bax-YFP, and the other channel was used to scan the red fluorescence of the CMXRos probe for indicating the chondriosome. […] When the Bax protein was localized on the chondriosome, the green and red fluorescence was superimposed into orange, as shown in FIG. 7.
Other 24 compounds were detected by the same experimental method as described above. […] Wherein the concentration and time meant that the detected compound simulated the BH3-only protein and driven the BAX to shift towards the chondriosome at the concentration for the time period.

[7] = system: Bcl-2; experiment: Western blotting, semiquantitative analysis of Bcl-2 protein bands; assay type: cell-based; settings: control = 1, tumor cells
Procedure: (§5) The interest protein was detected by the corresponding antibody. The expression of the interest protein in the cells was detected by horseradish peroxidase-labeled secondary antibodies in combination with ECL coloration method. […] The concentration of the protein bands in the Western images were carried out semiquantitative analysis and normalization treatment with KODAK Gel Logic 1500 imaging system software.

[8] = molecular target: His-tagged Mcl-1 protein (Homo sapiens, UniProt Q07820); experiment: ELISA assay, competitive binding to Mcl-1 protein (biotin-Bim/streptavidin plate); settings: 20 nM His-tagged Mcl-1, method calculates average IC50, read-out: Mcl-1 binding constants
Procedure: (§6) The present inventors used fluorescence polarization assay to detect the bonding force between the protein and the compounds in a previous study (PCT/CN2010/075521). […] ELISA assay was used to detect the bonding force between the compounds and the protein in this application.
(§7) Biotinylated Bim peptide was diluted to 0.09 μg/mL in SuperBlock blocking buffer in PBS and incubated for 1.5 h in 96-well microtiter plates already coated with streptavidin to allow the formation of the complex between Biotin-Bim and streptavidin. All incubations were performed at room temperature unless otherwise noted. Each inhibitor was first dissolved in pure DMSO to obtain a 10 mM stock solution. For each tested inhibitor, different concentrations of the inhibitor were incubated with 20 nM His-tagged Mcl-1 protein in PBS for 1 h with a final DMSO concentration of 4%. The plates were washed three times with PBS containing 0.05% Tween-20. The inhibitor and protein mixture (100 μL) were transferred to the plate containing the biotin-Bim/streptavidin complex and incubated for 2 h. The plate was then washed as before and mouse anti-His antibody that conjugated with horseradish peroxidase was added into the wells and incubated for 1 h. The plate was then washed with PBS containing 0.05% Tween-20. Finally, TMB was added to each well; the enzymatic reaction was stopped after 30 min by addition of H2SO4 (100 μL, 2M). Absorbances were measured with a TECAN GENios (Swiss, TECAN) microplate reader using a wavelength of 450 nm. Three independent experiments were performed with each inhibitor to calculate average IC50 value and standard deviation (SD).
(§8) The BH3 analogous degrees of other 11 compounds were detected by using the experimental method as described above. The protein binding constant (binding constant in table 1) between them and Bcl-2 and Mcl-1 proteins were also on nM grade.

[9] = molecular target: Bcl-2 protein (Homo sapiens, UniProt P10415); experiment: ELISA assay, competitive binding to Bcl-2 protein (biotin-Bim/streptavidin plate); settings: method calculates average IC50, read-out: Bcl-2 binding constants
Procedure: as §6, §7, §8

[10] = system: Mcl-1; experiment: Western blotting, semiquantitative analysis of Mcl-1 protein bands; assay type: cell-based; settings: control = 1, tumor cells
Procedure: as §5

T1 sequence (P10415 whole entry): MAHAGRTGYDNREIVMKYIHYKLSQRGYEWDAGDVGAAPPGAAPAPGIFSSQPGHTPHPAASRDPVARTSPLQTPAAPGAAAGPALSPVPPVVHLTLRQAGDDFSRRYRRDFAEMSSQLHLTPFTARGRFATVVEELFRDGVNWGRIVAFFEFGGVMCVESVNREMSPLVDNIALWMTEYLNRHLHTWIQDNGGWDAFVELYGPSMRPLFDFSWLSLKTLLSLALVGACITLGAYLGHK
Sequence of Bcl-2 protein (P10415 whole entry, species assumed): as the sequence (P10415 whole entry) above
Sequence of His-tagged Mcl-1 protein (Q07820 whole entry): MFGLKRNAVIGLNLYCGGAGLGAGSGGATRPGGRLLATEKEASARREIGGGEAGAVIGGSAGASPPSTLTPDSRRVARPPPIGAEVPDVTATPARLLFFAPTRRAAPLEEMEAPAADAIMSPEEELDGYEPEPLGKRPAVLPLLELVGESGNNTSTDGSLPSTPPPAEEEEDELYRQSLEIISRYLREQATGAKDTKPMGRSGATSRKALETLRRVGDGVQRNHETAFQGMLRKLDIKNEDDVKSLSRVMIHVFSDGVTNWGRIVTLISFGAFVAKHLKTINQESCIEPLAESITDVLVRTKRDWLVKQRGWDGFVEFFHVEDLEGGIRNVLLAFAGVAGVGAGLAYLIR
Sequence of GST-Bcl-2 protein (P10415 whole entry): as the sequence (P10415 whole entry) above
Sequence of Mcl-1 protein (Q07820 whole entry, species assumed): as the sequence (Q07820 whole entry) above

| SMILES | IC50 [1] [nM] | Ki [2] [nM] | IC50 [3] [nM] | Ki [4] [nM] | Doses (concentration at which the compound interfered with the interaction between Bcl-2 and Bax) [5] [µM] | Time (time period after which the interaction between Bcl-2 and Bax was interfered) [5] [h] | Doses (concentration at which the compound drove the BAX to shift towards the chondriosome) [6] [µM] | Time (time period after which BAX shifted towards the chondriosome) [6] [h] | concentration of the protein bands (semiquantitative, normalized), Bcl-2 ([7]; 6 h) | concentration of the protein bands (semiquantitative, normalized), Bcl-2 ([7]; 12 h) | concentration of the protein bands (semiquantitative, normalized), Bcl-2 ([7]; 18 h) | concentration of the protein bands (semiquantitative, normalized), Bcl-2 ([7]; 24 h) | IC50 [8] [nM] | melting point [°C] | IC50 [9] [nM] | concentration of the protein bands (semiquantitative, normalized), Mcl-1 ([10]; 2 h) | concentration of the protein bands (semiquantitative, normalized), Mcl-1 ([10]; 6 h) |
| --- | --- | --- | --- | --- | --- | --- | --- | --- | --- | --- | --- | --- | --- | --- | --- | --- | --- |
| CC(C)Cc1ccc(Sc2ccc3c4c(cccc24)C2=C(C#N)C(=O)N=C23)cc1 [Compound 19, 4-(4-Isobutyl-phenylsulfanyl)-8-oxo-8H-acenaphtho[1,2-b]pyrrole-9-carbonitrile] | > 50000 | 85 | 2200 | 23 | 0.3 | 3 | 3.0 | 3 | – | – | – | – | – | – | – | – | – |
| O=C1N=C2C(=C1NCCCc1ccccc1)c1ccc(Sc3ccc(Br)cc3)c3cccc2c13 [Compound 8, 3-(4-Bromo-phenylsulfanyl)-9-(3-phenyl-propylamino)-acenaphtho[1,2-b]pyrrol-8-one] | > 50000 | – | 1000 | – | 0.1 | 1 | 0.1 | 1 | 0.99 | 0.99 | 0.42 | 0.10 | 4 | 272 to 273 | 6 | 0.52 | 0.22 |
| O=C1N=C2C(=C1NCCCc1ccccc1)c1ccc(N3CCSCC3)c3cccc2c13 [Compound 10, 9-(3-Phenyl-propylamino)-3-thiomorpholin-4-yl-acenaphtho[1,2-b]pyrrol-8-one] | > 50000 | – | 500 | – | 0.1 | 2 | 0.2 | 1 | 0.99 | 0.99 | 0.45 | 0.12 | 5 | 265 to 266 | 17 | 0.53 | 0.21 |
| O=C1N=C2C(=C1NCCCc1ccccc1)c1cccc3cccc2c13 [Compound 3, 9-(3-Phenyl-propylamino)-acenaphtho[1,2-b]pyrrol-8-one] | > 50000 | – | 3000 | – | 0.2 | 2 | 0.2 | 2 | 0.99 | 0.99 | 0.49 | 0.18 | 14 | 252 to 253 | 8 | 0.65 | 0.29 |

From patent US8614333B2, “Acenaphtho heterocyclic compound and application thereof” (Dalian University of Technology, priority 2010, dated 2013)
